Tests used:
[1] = system: rainbow trout (Oncorhynchus mykiss); test: Contribution of tissues to fish body burden; format: in vivo; conditions: for Contribution of Blood to the fish's body burden / Contribution of Gills to the fish's body burden / Contribution of Liver to the fish's body burden / Contribution of Mucus to the fish's body burden / Contribution of Other tissue (all apart from blood, liver, gills and skin; muscle concentration assumed) to body burden / Contribution of Skin to the fish's body burden: fraction
[2] = Table S2; cited from earlier work
[3] = mean across fish, Figure 1, Q10, Q14 maximum estimates

CCCCCCCCCCCCCN(C)C [T13, N,N-dimethyltridecylamine]
Contribution of Blood to the fish's body burden ([1]; Fish #1): 0.038 | Contribution of Gills to the fish's body burden ([1]; Fish #1): 0.28 | Contribution of Liver to the fish's body burden ([1]; Fish #1): 0.05 | Contribution of Mucus to the fish's body burden ([1]; Fish #1): 0.11 | Contribution of Other tissue (all apart from blood, liver, gills and skin; muscle concentration assumed) to body burden ([1]; Fish #1): 0.36 | Contribution of Skin to the fish's body burden ([1]; Fish #1): 0.17 | Contribution of Blood to the fish's body burden ([1]; Fish #2): 0.031 | Contribution of Gills to the fish's body burden ([1]; Fish #2): 0.26 | Contribution of Liver to the fish's body burden ([1]; Fish #2): 0.09 | Contribution of Mucus to the fish's body burden ([1]; Fish #2): 0.09 | Contribution of Other tissue (all apart from blood, liver, gills and skin; muscle concentration assumed) to body burden ([1]; Fish #2): 0.29 | Contribution of Skin to the fish's body burden ([1]; Fish #2): 0.24 | Contribution of Blood to the fish's body burden ([1]; Fish #3): 0.038 | Contribution of Liver to the fish's body burden ([1]; Fish #3): 0.11 | Contribution of Mucus to the fish's body burden ([1]; Fish #3): 0.07 | Contribution of Other tissue (all apart from blood, liver, gills and skin; muscle concentration assumed) to body burden ([1]; Fish #3): 0.31 | Contribution of Skin to the fish's body burden ([1]; Fish #3): 0.22 | Contribution of Blood to the fish's body burden ([1]; Fish #4): 0.023 | Contribution of Gills to the fish's body burden ([1]; Fish #4): 0.22 | Contribution of Liver to the fish's body burden ([1]; Fish #4): 0.21 | Contribution of Mucus to the fish's body burden ([1]; Fish #4): 0.07 | Contribution of Other tissue (all apart from blood, liver, gills and skin; muscle concentration assumed) to body burden ([1]; Fish #4): 0.32 | Contribution of Skin to the fish's body burden ([1]; Fish #4): 0.17 | Contribution of Blood to the fish's body burden ([1]; Fish #5): 0.025 | Contribution of Gills to the fish's body burden ([1]; Fish #5): 0.30 | Contribution of Liver to the fish's body burden ([1]; Fish #5): 0.07 | Contribution of Mucus to the fish's body burden ([1]; Fish #5): 0.09 | Contribution of Other tissue (all apart from blood, liver, gills and skin; muscle concentration assumed) to body burden ([1]; Fish #5): 0.31 | Contribution of Skin to the fish's body burden ([1]; Fish #5): 0.21 | Contribution of Blood to the fish's body burden ([1]; Fish #6): 0.042 | Contribution of Gills to the fish's body burden ([1]; Fish #6): 0.24 | Contribution of Liver to the fish's body burden ([1]; Fish #6): 0.06 | Contribution of Mucus to the fish's body burden ([1]; Fish #6): 0.11 | Contribution of Other tissue (all apart from blood, liver, gills and skin; muscle concentration assumed) to body burden ([1]; Fish #6): 0.29 | Contribution of Skin to the fish's body burden ([1]; Fish #6): 0.25 | Contribution of Blood to the fish's body burden ([1]; Mean): 0.033 | Contribution of Gills to the fish's body burden ([1]; Mean): 0.26 | Contribution of Liver to the fish's body burden ([1]; Mean): 0.10 | Contribution of Mucus to the fish's body burden ([1]; Mean): 0.09 | Contribution of Other tissue (all apart from blood, liver, gills and skin; muscle concentration assumed) to body burden ([1]; Mean): 0.31 | Contribution of Skin to the fish's body burden ([1]; Mean): 0.21 | % contribution to body burden, Gills ([1]; mean across fish, Figure 1): 26% | % contribution to body burden, Mucus ([1]; mean across fish, Figure 1): 9% | % contribution to body burden, Liver [1, 3]: 10% | % contribution to body burden, Skin [1, 3]: 21% | % contribution to body burden, Muscle ([1]; mean across fish, Figure 1, includes all tissues not specifically analyzed, Q10, Q14 maximum estimates): 31% | pKa [2]: 9.5
